In patent publication US9255101B2 (BIOPROJECT, priority 2012, dated 2016) one finds Ki and IC50 data, which are given here for 21 compounds.

pIC50, pKi: −log10 of the molar value. Structures can show the parent of a compound that is named as a salt.

Test [1] deals with T1, human H4 receptor (Homo sapiens, UniProt Q9H3N8). Briefly: biochemical.
The target in test [2] is T1, human H4 receptor. Nature of the test: biochemical. This is another data set of the same source.
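Throughout, for IC50: membranes from SH-SY5Y cells with stable human H4 receptor expression, incubated with GDP 10 µM, radioactivity retained on filters counted by liquid scintillation.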
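Throughout, for Ki: radioligand displacement of a [3H]-labelled ligand from membranes of CHO cells stably expressing human H4 receptor, bound radioactivity counted on filters by liquid scintillation.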

T1 sequence (Q9H3N8 whole entry): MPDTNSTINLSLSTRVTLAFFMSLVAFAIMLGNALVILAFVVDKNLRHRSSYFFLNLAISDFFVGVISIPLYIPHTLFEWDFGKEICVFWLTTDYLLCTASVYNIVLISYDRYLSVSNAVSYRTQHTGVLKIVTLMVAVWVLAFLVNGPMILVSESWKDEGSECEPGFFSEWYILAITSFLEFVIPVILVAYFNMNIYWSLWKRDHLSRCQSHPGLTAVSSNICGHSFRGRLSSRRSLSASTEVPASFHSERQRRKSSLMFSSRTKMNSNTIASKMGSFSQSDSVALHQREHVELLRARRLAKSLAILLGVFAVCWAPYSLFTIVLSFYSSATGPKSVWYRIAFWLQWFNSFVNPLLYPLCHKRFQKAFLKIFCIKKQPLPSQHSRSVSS

Usually pKi stands for the Ki on a negative log10 scale, so that one unit is a factor of ten. A lower pKi goes with a high Ki. One may read the pIC50 as the negative decadic logarithm of the IC50, by convention in mol/L. Compound `CN1CCC(OC2c3ccccc3CCn3cc(CCCCCc4ccccc4)nc32)CC1` (stereo not drawn) [Example 90, 4-(1-methylpiperidin-4-yloxy)-2-(5-phenylpentyl)-9,10-dihydro-4H-3,10a-diaza-benzo[f]azulene oxalate] had a pKi on human H4 receptor [1] of over 7.52. The compound further had a pIC50 against human H4 receptor [2] of over 7.52.

`CN1CCC(OC2c3ccccc3CCn3cc(C=CC(C)(C)C)nc32)CC1` (stereo not drawn) [Example 93, 2-(3,3-dimethylbut-1-enyl)-4-(1-methylpiperidin-4-yloxy)-9,10-dihydro-4H-3,10a-diaza-benzo[f]azulene] had a pKi on human H4 receptor [1] of over 7.52. At human H4 receptor [2], this compound showed a pIC50 of over 7.52.

Compound `CN1CCC(OC2c3ccccc3CCn3cc(CCC(C)(C)C)nc32)CC1` (stereo not drawn) [Example 94, 2-(3,3-dimethylbutyl)-4-(1-methylpiperidin-4-yloxy)-9,10-dihydro-4H-3,10a-diaza-benzo[f]azulene] showed a pKi at human H4 receptor [1] of over 7.52. Further, the pIC50 on human H4 receptor [2] is over 7.52.

`CN1CCC(OC2c3ccccc3CCn3cc(-c4ccc(N(C)C(=O)OC(C)(C)C)cc4)nc32)CC1` (stereo not drawn) [Example 97, methyl-{4-[4-(1-methylpiperidin-4-yloxy)-9,10-dihydro-4H-3,10a-diaza-benzo[f]azulen-2-yl]-phenyl}-carbamic acid tert-butyl ester oxalate] gave a pKi at human H4 receptor [1] of over 7.52. Moreover, the pIC50 against human H4 receptor [2] is over 7.52.

For `CN1CCC(OC2c3ccccc3CCn3cc(C=CC4CC4)nc32)CC1` (stereo not drawn) [Example 99, 2-(2-cyclopropylvinyl)-4-(1-methylpiperidin-4-yloxy)-9,10-dihydro-4H-3,10a-diaza-benzo[f]azulene oxalate], the pKi at human H4 receptor [1] is over 6.52. Also, the pIC50 on human H4 receptor [2] is over 6.52.

In the case of `Cc1c(-c2ccccc2)nc2n1CCc1ccccc1C2OC1CCN(C)CC1` (stereo not drawn) [Example 103, 1-Methyl-4-(1-methyl-piperidin-4-yloxy)-2-phenyl-9,10-dihydro-4H-3,10a-diaza-benzo[f]azulene], the pKi at human H4 receptor [1] was over 7.52. The pIC50 against human H4 receptor [2] is over 7.52.

On human H4 receptor [1], `CN1CCC(OC2c3ccccc3CCn3cc(CCCC4CCCC4)nc32)CC1` (stereo not drawn) [Example 105, 2-(3-cyclopentylpropyl)-4-(1-methylpiperidin-4-yloxy)-9,10-dihydro-4H-3,10a-diaza-benzo[f]azulene] showed a pKi of over 7.52. In addition, the pIC50 against human H4 receptor [2] is over 7.52.

On to `CN1CCC(OC2c3ccccc3CCn3cc(C=Cc4ccsc4)nc32)CC1` (stereo not drawn) [Example 112, 4-(1-methylpiperidin-4-yloxy)-2-(2-thiophen-3-ylvinyl)-9,10-dihydro-4H-3,10a-diaza-benzo[f]azulene], for which, at human H4 receptor [1], the pKi is over 7.52. This compound showed a negative-log IC50 (pIC50) against human H4 receptor [2] of over 7.52.

Turning to `CN1CCC(OC2c3ccccc3CCn3cc(SCCc4ccccc4)nc32)CC1` (stereo not drawn) [Example 119, 4-(1-methylpiperidin-4-yloxy)-2-phenethylsulfanyl-9,10-dihydro-4H-3,10a-diaza-benzo[f]azulene], the pKi at human H4 receptor [1] is over 7.52. Moreover, the pIC50 at human H4 receptor [2] was over 7.52.

In the case of `CCc1c(-c2ccccc2)nc2n1CCc1ccccc1C2OC1CCN(C)CC1` (stereo not drawn) [Example 120, 1-ethyl-4-(1-methylpiperidin-4-yloxy)-2-phenyl-9,10-dihydro-4H-3,10a-diaza-benzo[f]azulene oxalate], the pKi at human H4 receptor [1] is over 7.52. Besides, the pIC50 on human H4 receptor [2] is over 7.52.

As for `CN1CCC(OC2c3ccccc3CCn3cc(C=CCOc4ccccc4)nc32)CC1` (stereo not drawn) [Example 121, 4-(1-methylpiperidin-4-yloxy)-2-(3-phenoxypropenyl)-9,10-dihydro-4H-3,10a-diaza-benzo[f]azulene], the pKi at human H4 receptor [1] is over 7.52. On human H4 receptor [2], this compound gave a pIC50 of over 7.52.

The compound `Cc1c(-c2ccc(Br)cc2)nc2n1CCc1ccccc1C2OC1CCN(C)CC1` (stereo not drawn) [Example 122, 2-(4-bromophenyl)-1-methyl-4-(1-methylpiperidin-4-yloxy)-9,10-dihydro-4H-3,10a-diaza-benzo[f]azulene] had a pKi on human H4 receptor [1] of over 7.52. Besides, the pIC50 at human H4 receptor [2] was over 7.52.

Regarding `Cc1c(-c2ccc(N(C)C(=O)OC(C)(C)C)cc2)nc2n1CCc1ccccc1C2OC1CCN(C)CC1` (stereo not drawn) [Example 125, methyl-{4-[1-methyl-4-(1-methylpiperidin-4-yloxy)-9,10-dihydro-4H-3,10a-diaza-benzo[f]azulen-2-yl]-phenyl}carbamic acid tert-butyl ester], the pKi at human H4 receptor [1] is over 7.52. At human H4 receptor [2], the pIC50 was over 7.52.

Take `CN1CCC(OC2c3ccccc3CCn3cc(CCCCc4ccccc4)nc32)CC1` (stereo not drawn) [Example 129, 4-(1-methylpiperidin-4-yloxy)-2-(4-phenylbutyl)-9,10-dihydro-4H-3,10a-diaza-benzo[f]azulene oxalate]: at human H4 receptor [1], the pKi is over 7.52. Besides, the negative-log IC50 (pIC50) on human H4 receptor [2] is over 7.52.

`Cc1c(-c2ccc(NC(=O)OC(C)(C)C)cc2)nc2n1CCc1ccccc1C2OC1CCN(C)CC1` (stereo not drawn) [Example 130, {4-[1-methyl-4-(1-methylpiperidin-4-yloxy)-9,10-dihydro-4H-3,10a-diaza-benzo[f]azulen-2-yl]-phenyl}-carbamic acid tert-butyl ester] gave a pKi at human H4 receptor [1] of over 7.52. The same compound gave a pIC50 at human H4 receptor [2] of over 7.52.

At human H4 receptor [1], `CN1CCC(OC2c3ccccc3CCn3c2nc(-c2ccccc2)c3Cl)CC1` (stereo not drawn) [Example 134, 1-chloro-4-(1-methylpiperidin-4-yloxy)-2-phenyl-9,10-dihydro-4H-3,10a-diaza-benzo[f]azulene] gave a pKi of over 7.52. This compound also showed a negative logarithm of the IC50 (pIC50) against human H4 receptor [2] of over 7.52.

`CN1CCC(OC2c3ccccc3CCn3c2nc(CCCCCc2ccccc2)c3Cl)CC1` (stereo not drawn) [Example 139, 1-chloro-4-(1-methylpiperidin-4-yloxy)-2-(5-phenylpentyl)-9,10-dihydro-4H-3,10a-diaza-benzo[f]azulene oxalate]: the pKi on human H4 receptor [1] is over 7.52. In addition, the pIC50 against human H4 receptor [2] was over 7.52.

As for `Cc1c(-c2ccc(N3CCN(C(C)(C)C)C3=O)cc2)nc2n1CCc1ccccc1C2OC1CCN(C)CC1` (stereo not drawn) [Example 140, 1-tert-butyl-3-{4-[1-methyl-4-(1-methylpiperidin-4-yloxy)-9,10-dihydro-4H-3,10a-diaza-benzo[f]azulen-2-yl]-phenyl}-imidazolidin-2-one], the pKi at human H4 receptor [1] is over 7.52. This compound gave a negative logarithm of the IC50 (pIC50) against human H4 receptor [2] of over 6.52.

`Cc1c(-c2ccc(SC(C)(C)CCO)cc2)nc2n1CCc1ccccc1C2OC1CCN(C)CC1` (stereo not drawn) [Example 152, 3-methyl-3-{4-[1-methyl-4-(1-methylpiperidin-4-yloxy)-9,10-dihydro-4H-3,10a-diaza-benzo[f]azulen-2-yl]-phenylsulfanyl}-butan-1-ol] gave a pKi at human H4 receptor [1] of over 7.52. Further, the pIC50 on human H4 receptor [2] is over 7.52.

In turn, `Cc1c(-c2ccc(C=CS(C)(=O)=O)cc2)nc2n1CCc1ccccc1C2OC1CCN(C)CC1` (stereo not drawn) [Example 158, 2-[4-(2-methanesulfonyl-vinyl)-phenyl]-1-methyl-4-(1-methylpiperidin-4-yloxy)-9,10-dihydro-4H-3,10a-diaza-benzo[f]azulene] showed a pKi at human H4 receptor [1] of over 7.52. Further, at human H4 receptor [2], the pIC50 is over 7.52.

At human H4 receptor [1], `Cc1c(-c2ccc(SCCN)cc2)nc2n1CCc1ccccc1C2OC1CCN(C)CC1` (stereo not drawn) [Example 161, 2-{4-[1-methyl-4-(1-methylpiperidin-4-yloxy)-9,10-dihydro-4H-3,10a-diaza-benzo[f]azulen-2-yl]-phenylsulfanyl}-ethylamine oxalate] showed a pKi of over 7.52. Besides, the pIC50 at human H4 receptor [2] is over 7.52.
